Source: patent US12350708B2, “Molecular coatings and methods of making and using the same” (Glisten LLC, priority 2019, dated 2025)

Experiment: water contact angle testing of diamond surfaces
Assay type: physicochemical
Conditions: diamond surface, Example 11, FIGS. 20A-20D; uncoated diamond approximately 65°
Description: In some embodiments, water contact angle goniometry can be used to probe the surface properties and performance of the functionalized gemstones (e.g., of the diamond surface, of the surface after the anchor molecule is bound, and/or of the surface after the host molecule is bound forming an inclusion complex). In some embodiments, comparisons of water contact angle can be employed to analytically determine the specific coverage of adsorbed species pertaining to the anchor and to the host/guest complex. In some embodiments, water contact angle can be used to determine the durability of the gemstone coating by performing measurements at various stages of time after normal use after the host/guest inclusion complexes are formed. […]
(§1) Self-assembly of the β-cyclodextrin is analyzed with water contact angle. Angles will decrease according to the quantity of cyclodextrin residing on the substrate. The change in the refractive index of the surface after molecular coating is determined using optical ellipsometry. […]
as §1

OC[C@H]1O[C@@H]2O[C@H]3[C@H](O)[C@@H](O)[C@@H](O[C@H]4[C@H](O)[C@@H](O)[C@@H](O[C@H]5[C@H](O)[C@@H](O)[C@@H](O[C@H]6[C@H](O)[C@@H](O)[C@@H](O[C@H]7[C@H](O)[C@@H](O)[C@@H](O[C@H]8[C@H](O)[C@@H](O)[C@@H](O[C@H]1[C@H](O)[C@H]2O)O[C@@H]8CO)O[C@@H]7CO)O[C@@H]6CO)O[C@@H]5CO)O[C@@H]4CO)O[C@@H]3CO [b-cyclodextrin, β-cyclodextrin]
contact angle: 61 °
